# Measured values from publication PMC4550771, “Synthesis and Validation of a Hydroxypyrone-Based, Potent, and Specific Matrix Metalloproteinase-12 Inhibitor with Anti-Inflammatory Activity In Vitro and In Vivo” (Mediators of Inflammation, 2015).
# Legend:
# [1] = system: LPS-induced lethality in mice; details: cited from earlier work
# [2] = target: T1, human recombinant MMP-12 catalytic domain (Homo sapiens, UniProt P39900); experiment: Detailed dose-response with Substrate XIII (AnaSpec) quenched fluorescent substrate; assay type: biochemical
# T1 construct: human recombinant MMP-3 (72006, AnaSpec) and MMP-12 catalytic domains (55525-1, AnaSpec); purchased AnaSpec 55525-1
# T1 sequence (P39900 106-263 limits assumed): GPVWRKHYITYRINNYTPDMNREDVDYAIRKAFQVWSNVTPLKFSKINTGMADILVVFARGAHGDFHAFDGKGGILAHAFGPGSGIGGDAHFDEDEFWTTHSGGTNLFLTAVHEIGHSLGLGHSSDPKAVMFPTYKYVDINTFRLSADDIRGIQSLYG
# Protocol: […] Briefly, the compound was dissolved in dimethyl sulfoxide (DMSO) and further diluted in assay buffer (50 mM HEPES, 10 mM CaCl2, 0.05% Brij-35, and pH 7.5). […] In each experiment we included a blank, a substrate control (substrate only in assay buffer), a positive control (NNGH, 1.3 μM final concentration), and negative control (only substrate and inhibitor in assay buffer). The latter was implemented to exclude possible interference of the inhibitor with the substrate. […] The IC50 values were determined in a single experimental run in duplicate. Data analysis and curve fitting for determination of IC50 values were performed in GraphPad Prism 6.
# [3] = target: T1, human recombinant MMP-12 catalytic domain; experiment: Recombinant MMP fluorescent assay kit (OmniMMP substrate), initial screen; assay type: biochemical; details: pH 7.5, 1 h incubation at 37°C, OmniMMP substrate 4 μM, read-out: apparent IC50 MMP-12 (initial screen)
# Protocol: (§1) The specificity of the synthesized inhibitor was determined in vitro against a panel of ten human recombinant MMP catalytic domains using a fluorescent assay kit (BML-AK016, Enzo Life Sciences). Briefly, the compound was dissolved in dimethyl sulfoxide (DMSO) and further diluted in assay buffer (50 mM HEPES, 10 mM CaCl2, 0.05% Brij-35, and pH 7.5). Ten MMPs (MMP-1, MMP-2, MMP-3, MMP-7, MMP-8, MMP-9, MMP-10, MMP-12, MMP-13, and MMP-14) were individually incubated with varying concentrations of inhibitor for one hour at 37°C, followed by addition of a quenched fluorogenic substrate (OmniMMP fluorogenic substrate Mca-Pro-Leu-Gly-Leu-Dpa-Ala-Arg-NH2 [Mca is (7-methoxycoumarin-4-yl)-acetyl; Dpa is N-3-(2,4-dinitrophenyl)-L-α-β-diaminopropionyl], 4 μM in assay). […] After each fluorescent measurement the well plates were shaken for 2 sec to agitate the reagents. In each experiment we included a blank, a substrate control (substrate only in assay buffer), a positive control (NNGH, 1.3 μM final concentration), and negative control (only substrate and inhibitor in assay buffer). The latter was implemented to exclude possible interference of the inhibitor with the substrate. […] The IC50 values were determined in a single experimental run in duplicate. Data analysis and curve fitting for determination of IC50 values were performed in GraphPad Prism 6.
# [4] = system: primary mouse choroid plexus epithelial cells; experiment: Blood-CSF barrier permeability in vitro (ECIS impedance); assay type: cell-based; details: 1 μM inhibitor 1 hour before LPS 1000 ng/mL; n = 3
# Protocol: Culturing primary mouse choroid plexus epithelial cells was done as described. In brief, 2–9-day-old pups were decapitated and brains were isolated. Choroid plexuses from all four ventricles were isolated under a dissection microscope. The cells were dissociated enzymatically by incubating them for 5–7 min with pronase (isolated from Streptomyces griseus, Sigma). Digestion was stopped by adding an excess of HBSS buffer and the cells were washed twice with HBSS. The cell pellet was resuspended in DMEM-F12 culture medium and plated on laminin-coated plates. Two days later, they were shifted to DMEM-F12 containing cytosine arabinoside (Ara-C) to eliminate growth of fibroblasts. Cultures were maintained at 37°C in 5% CO2. Purity of the cultures was confirmed by checking the levels of transthyretin (TTR) both by qPCR and by immunostaining. Primary CPE cells retained the epithelial and the barrier properties which were confirmed by staining for E-cadherin, ZO-1, and occludin. The electric cell-substrate impedance (ECIS) technique (Applied Biophysics) was used to monitor barrier properties as described before. 250.000 cells per well were seeded onto laminin-coated 8W10E array plates (Applied Biophysics) and the array holder was placed in a standard cell culture incubator (37°C, 100% humidity, and 5% CO2). Array plates were connected to the instrument and multifrequency measurements were started. […]
# [5] = target: T2, human recombinant MMP-14 catalytic domain (Homo sapiens, UniProt P50281); experiment: Recombinant MMP fluorescent assay kit (OmniMMP substrate); assay type: biochemical
# T2 construct: a panel of ten human recombinant MMP catalytic domains; purchased Enzo Life Sciences BML-AK016
# Protocol: as §1
# [6] = target: T3, human recombinant MMP-1 catalytic domain (Homo sapiens, UniProt P03956); experiment: as above; assay type: biochemical
# T3 construct: a panel of ten human recombinant MMP catalytic domains; purchased Enzo Life Sciences BML-AK016
# T3 sequence (P03956 100-269 limits assumed): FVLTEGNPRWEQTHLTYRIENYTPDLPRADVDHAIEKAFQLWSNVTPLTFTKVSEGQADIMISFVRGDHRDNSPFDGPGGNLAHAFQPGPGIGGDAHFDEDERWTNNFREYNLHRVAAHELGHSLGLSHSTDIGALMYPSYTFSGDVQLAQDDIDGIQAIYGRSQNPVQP
# Protocol: as §1
# [7] = target: T4, human recombinant MMP-13 catalytic domain (Homo sapiens, UniProt P45452); experiment: as above; assay type: biochemical
# T4 construct: a panel of ten human recombinant MMP catalytic domains; purchased Enzo Life Sciences BML-AK016
# Protocol: as §1
# [8] = target: T5, human recombinant MMP-3 catalytic domain (Homo sapiens, UniProt P08254); experiment: as above; assay type: biochemical
# T5 construct: a panel of ten human recombinant MMP catalytic domains; purchased Enzo Life Sciences BML-AK016
# T5 sequence (P08254 100-272 limits assumed): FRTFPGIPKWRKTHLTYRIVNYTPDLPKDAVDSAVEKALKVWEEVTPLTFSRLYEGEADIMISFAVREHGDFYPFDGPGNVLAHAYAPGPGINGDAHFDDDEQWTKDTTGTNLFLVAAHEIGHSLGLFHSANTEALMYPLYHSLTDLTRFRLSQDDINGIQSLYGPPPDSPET
# Protocol: as §1
# [9] = target: T6, human recombinant MMP-9 catalytic domain (Homo sapiens, UniProt P14780); experiment: as above; assay type: biochemical
# T6 construct: a panel of ten human recombinant MMP catalytic domains; purchased Enzo Life Sciences BML-AK016
# T6 sequence (P14780 107-444 limits assumed): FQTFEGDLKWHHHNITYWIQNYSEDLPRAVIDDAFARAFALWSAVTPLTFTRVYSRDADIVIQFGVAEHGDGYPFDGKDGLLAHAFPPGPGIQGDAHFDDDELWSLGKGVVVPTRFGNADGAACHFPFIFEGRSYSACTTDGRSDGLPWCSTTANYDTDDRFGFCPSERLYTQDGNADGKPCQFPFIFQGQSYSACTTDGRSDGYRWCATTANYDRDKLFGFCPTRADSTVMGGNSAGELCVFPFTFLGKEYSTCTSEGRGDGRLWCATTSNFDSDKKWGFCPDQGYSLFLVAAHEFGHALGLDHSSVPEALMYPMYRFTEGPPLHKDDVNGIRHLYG
# Protocol: as §1
# [10] = target: T7, human recombinant MMP-10 catalytic domain (Homo sapiens, UniProt P09238); experiment: as above; assay type: biochemical
# T7 construct: a panel of ten human recombinant MMP catalytic domains; purchased Enzo Life Sciences BML-AK016
# T7 sequence (P09238 99-263 limits assumed): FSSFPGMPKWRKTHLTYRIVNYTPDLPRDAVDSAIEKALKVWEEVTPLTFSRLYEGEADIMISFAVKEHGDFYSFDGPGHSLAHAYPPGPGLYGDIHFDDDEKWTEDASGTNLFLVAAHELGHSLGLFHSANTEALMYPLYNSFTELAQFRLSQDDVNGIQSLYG
# Protocol: as §1
# [11] = target: T8, human recombinant MMP-7 catalytic domain (Homo sapiens, UniProt P09237); experiment: as above; assay type: biochemical
# T8 construct: a panel of ten human recombinant MMP catalytic domains; purchased Enzo Life Sciences BML-AK016
# T8 sequence (P09237 95-267): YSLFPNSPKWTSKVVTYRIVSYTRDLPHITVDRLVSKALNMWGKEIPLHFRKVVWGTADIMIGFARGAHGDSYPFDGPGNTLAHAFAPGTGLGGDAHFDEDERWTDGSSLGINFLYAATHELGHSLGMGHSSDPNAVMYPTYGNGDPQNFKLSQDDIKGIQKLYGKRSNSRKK
# Protocol: as §1
# [12] = target: T9, human recombinant MMP-2 catalytic domain (Homo sapiens, UniProt P08253); experiment: as above; assay type: biochemical
# T9 construct: a panel of ten human recombinant MMP catalytic domains; purchased Enzo Life Sciences BML-AK016
# T9 sequence (P08253 110-446 limits assumed): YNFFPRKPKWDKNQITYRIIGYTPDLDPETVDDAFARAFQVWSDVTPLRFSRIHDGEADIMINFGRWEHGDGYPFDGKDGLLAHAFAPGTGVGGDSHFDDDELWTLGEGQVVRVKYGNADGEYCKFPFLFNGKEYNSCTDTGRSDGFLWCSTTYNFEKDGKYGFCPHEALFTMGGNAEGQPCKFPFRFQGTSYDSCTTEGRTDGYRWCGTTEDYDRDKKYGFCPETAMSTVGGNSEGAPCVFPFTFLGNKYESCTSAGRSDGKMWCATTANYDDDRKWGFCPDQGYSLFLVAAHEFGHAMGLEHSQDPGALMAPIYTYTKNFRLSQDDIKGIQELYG
# Protocol: as §1
# [13] = target: T10, human recombinant MMP-8 catalytic domain (Homo sapiens, UniProt P22894); experiment: as above; assay type: biochemical
# T10 construct: a panel of ten human recombinant MMP catalytic domains; purchased Enzo Life Sciences BML-AK016
# T10 sequence (P22894 100-262 limits assumed): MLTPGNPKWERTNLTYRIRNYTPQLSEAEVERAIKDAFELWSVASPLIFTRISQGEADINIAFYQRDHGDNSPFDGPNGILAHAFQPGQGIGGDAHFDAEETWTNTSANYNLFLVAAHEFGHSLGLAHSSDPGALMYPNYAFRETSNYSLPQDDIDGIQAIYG
# Protocol: as §1
# [14] = system: LPS-induced lethality in C57BL/6 mice; experiment: Endotoxemia model: survival after lethal LPS challenge; assay type: in vivo, mouse; details: 100 μg i.p. 15 min before and 3 and 6 h after LPS 200 μg/20 g i.p. (LD100), log-rank test
# Source text: Female C57BL/6J (8–10 weeks old) mice were purchased from Janvier Labs (France) and MMP-12 knockout mice (MMP-12^−/−) (in C57BL/6J background together with littermate MMP-12^+/+ controls) were obtained from Dr. Steven Shapiro (University of Pittsburgh, USA). C57BL/6 and MMP-12^−/− mice were housed with 4–6 mice/cage with ad libitum access to food and water and with a 14-hour light/10-hour dark cycle in a specific pathogen-free animal facility and conventional facility, respectively. All experiments were approved by the Ethics Committee of the Faculty of Sciences of Ghent University.
# Endotoxemia was induced by intraperitoneal (i.p.) injection of lipopolysaccharide (LPS) from Salmonella enterica serotype abortus equi (Sigma) dissolved in PBS. […] Control animals received i.p. injections of PBS. Rectal temperature was measured periodically after challenge. 100 μg MMP-12i (1 μg/μL) or vehicle control was administered intraperitoneally at different time points: 15 min before and 3 and 6 hours after LPS administration.
Compound,protection from LPS-induced lethality [1],"IC50 ([2]; Figure 1(c) fitted dose-response curve, read-out: log(IC50) MMP-12 (converted)) [µM]","inhibitory plateau at higher inhibitor concentrations, MMP-12 ([2]; Substrate XIII (AnaSpec), nonlinear regression) [%]","IC50 ([2]; Substrate XIII (AnaSpec), nonlinear regression of dose-response curve, read-out: relative IC50 MMP-12) [µM]",IC50 [3] [µM],"LPS-induced drop in normalized resistance (ECIS, low frequency) [4]",IC50 [5] [µM],IC50 [6] [µM],IC50 [7] [µM],IC50 [8] [µM],IC50 [9] [µM],IC50 [10] [µM],IC50 [11] [µM],IC50 [12] [µM],IC50 [13] [µM],LPS-induced lethality (survival) vs vehicle [14]
CNC(=O)[C@H](Cc1ccccc1)NC(=O)[C@H](CC(C)C)[C@H](CSc1cccs1)C(=O)NO [BB-94],protected from LPS-induced lethality,,,,,,,,,,,,,,,
"Cc1cc(=O)c(O)c(C(=O)NCc2ccc(-c3ccc(-c4ccccc4)cc3)cc2)o1 [Compound 9, N-([1,1′:4′,1′′-Terphenyl]-4-ylmethyl)-3-hydroxy-6-methyl-4-oxo-4H-pyran-2-carboxamide]",,0.177,72 ± 1.75,0.177,< 2,significantly reduced,2 to 50,> 50,> 50,> 50,> 50,> 50,> 50,2 to 50,2 to 50,significant reduction in LPS-induced lethality
